Data on one compound can be found in PMC5831858, “Pharmacological characterisation of CR6086, a potent prostaglandin E2 receptor 4 antagonist, as a new potential disease-modifying anti-rheumatic drug” (Arthritis Research & Therapy, 2018).

One series concerns the target NK3 (Homo sapiens, UniProt P29371). Description: Neurokinin receptor NK3 binding. The conditions noted are these: [^3H]SR 142801, Human recombinant CHO cells, read-out: CR6086 Activity at 10µM.
A further series has as its target MC4 (Homo sapiens, UniProt P32245). Description: MC4 receptor binding. The conditions noted are these: [^125I]NDP-α-MSH, Human recombinant CHO cells, read-out: CR6086 Activity at 10µM.
For a further series, the target named is CXCR2 (IL-8B) (Homo sapiens, UniProt P25025). Briefly: CXCR2 receptor binding. The conditions noted are these: [^125I]IL-8, Human recombinant HEK-293 cells, read-out: CR6086 Activity at 10µM.
A short description of series [1]: Plasma protein binding (equilibrium dialysis, [^14C]CR6086). It is filed as in vitro ADME. To be noted: rat, 0.2–200 μM, read-out: unbound fraction (fu). How it is done: CR6086 concentrations in rat plasma were determined by high-performance liquid chromatography (Agilent 1200 series; Agilent Technologies, Santa Clara, CA, USA) coupled with a triple-quadrupole mass spectrometer (API 4000 QTRAP; SCIEX, Concord, ON, Canada). A ZORBAX SB-C18 2.0 × 50-mm, 3.5-μm column (Agilent Technologies) in isocratic conditions was used with mobile phase 0.1% formic acid in water/acetonitrile (68:32 vol/vol). The method was linear within the dynamic range 1.0–10,000 ng/ml (lower to upper limit of quantification). CR6086 plasma protein binding was determined in the 0.2–200 μM concentration range using [^14C]CR6086 and equilibrium dialysis. EP4 receptor occupancy (RO) was calculated on the basis of CR6086 concentrations according to the following formula: RO%=Cave/Cave+Ki×100,

Another series concerns the target ETA (Homo sapiens, UniProt P25101). Description: Endothelin receptor ETA binding. The conditions noted are these: [^125I]endothelin-1, Human recombinant CHO cells, read-out: CR6086 Activity at 10µM.
The next series concerns BB (non-selective). Description: BB receptor (non-selective) binding. The conditions noted are these: [^125I][Tyr^4]bombesin, Rat cerebral cortex.
A further series has as its system α1 (non-selective). Description: Adrenergic receptor α1 binding. To be noted: [^3H]prazosin, Rat cerebral cortex.
The target in a further series is PAC1 (PACAP) (Homo sapiens, UniProt P41586). Briefly: PAC1 receptor binding. To be noted: [^125I]PACAP1-27, Human recombinant CHO cells, read-out: CR6086 Activity at 10µM.
A further series concerns the target 5-HT2B (Homo sapiens, UniProt P41595). Description: Serotonin receptor 5-HT2B binding. The conditions noted are these: [^125I](±)DOI, Human recombinant CHO cells, read-out: CR6086 Activity at 10µM.
For series [2], the target named is Norepinephrine transporter (Homo sapiens, UniProt P23975). Description: Norepinephrine transporter binding. The conditions noted are these: [^3H]nisoxetine, Human recombinant CHO cells, read-out: CR6086 Activity at 10µM.
The target in a further series is VPAC1 (VIP1) (Homo sapiens, UniProt P32241). Briefly: VPAC1 receptor binding. The conditions noted are these: [^125I]VIP, Human recombinant CHO cells, read-out: CR6086 Activity at 10µM.
The next series relates to sst (non-selective). Briefly: sst receptor (non-selective) binding. The conditions noted are these: [^125I]Tyr^11-somatostatin-14, AtT-20 cells.
Another series has as its target Y2 (Homo sapiens, UniProt P49146). Description: Neuropeptide Y receptor Y2 binding. The conditions noted are these: [^125I]peptide YY, KAN-TS cells, read-out: CR6086 Activity at 10µM.
In a further series the test system is P2Y. Description: Purinergic receptor P2Y binding. The conditions noted are these: [^35S]dATPαS, Rat cerebral cortex.
The next series concerns the target GAL2 (Homo sapiens, UniProt O43603). Briefly: Galanin receptor GAL2 binding. The conditions noted are these: [^125I]galanin, Human recombinant CHO cells, read-out: CR6086 Activity at 10µM.
The target of another series is TP (TXA2/PGH2) (Homo sapiens, UniProt P21731). Description: Eicosanoid receptor TP binding. To be noted: [^3H]SQ 29548, HEK-293 cells, read-out: CR6086 Activity at 10µM.
In another series the target is AR (Homo sapiens, UniProt P10275, T878A). Briefly: Nuclear receptor AR binding. To be noted: [^3H]methyltrienolone, LNCaP cells, read-out: CR6086 Activity at 10µM.
The target in a further series is MT1 (ML1A) (Homo sapiens, UniProt P48039). Briefly: MT1 receptor binding. To be noted: [^125I]2-iodomelatonin, Human recombinant CHO cells, read-out: CR6086 Activity at 10µM.
The test system of the next series is GABA (non-selective). Description: GABA receptor (non-selective) binding. To be noted: [^3H]GABA, Rat cerebral cortex.
The next series addresses M5 (Homo sapiens, UniProt P08912). Description: Muscarinic acetylcholine receptor M5 binding. The conditions noted are these: [^3H]4-DAMP, Human recombinant CHO cells, read-out: CR6086 Activity at 10µM.
For a further series, the target named is CysLT2 (Cys-LTs) (Homo sapiens, UniProt Q9NS75). Description: Eicosanoid receptor CysLT2 binding. The conditions noted are these: [^3H]LTD4, HEK-293 cells, read-out: CR6086 Activity at 10µM.

Each structure is given as a SMILES string.

What is called fraction unbound is free concentration divided by total concentration.

NK3, sequence (P29371 whole entry): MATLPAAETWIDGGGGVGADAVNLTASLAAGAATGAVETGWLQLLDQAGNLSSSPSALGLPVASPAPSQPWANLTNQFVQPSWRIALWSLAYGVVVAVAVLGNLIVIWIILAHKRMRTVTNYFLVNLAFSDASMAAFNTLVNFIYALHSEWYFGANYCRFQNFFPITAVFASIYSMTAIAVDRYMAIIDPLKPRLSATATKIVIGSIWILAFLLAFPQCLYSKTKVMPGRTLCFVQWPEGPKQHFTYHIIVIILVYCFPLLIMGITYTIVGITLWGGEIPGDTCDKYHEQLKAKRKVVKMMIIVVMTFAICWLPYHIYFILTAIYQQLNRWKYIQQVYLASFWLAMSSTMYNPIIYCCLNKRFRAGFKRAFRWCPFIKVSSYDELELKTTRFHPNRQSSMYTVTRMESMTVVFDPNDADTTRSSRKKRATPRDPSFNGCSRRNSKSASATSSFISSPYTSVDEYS
5-HT2B, sequence (P41595 whole entry): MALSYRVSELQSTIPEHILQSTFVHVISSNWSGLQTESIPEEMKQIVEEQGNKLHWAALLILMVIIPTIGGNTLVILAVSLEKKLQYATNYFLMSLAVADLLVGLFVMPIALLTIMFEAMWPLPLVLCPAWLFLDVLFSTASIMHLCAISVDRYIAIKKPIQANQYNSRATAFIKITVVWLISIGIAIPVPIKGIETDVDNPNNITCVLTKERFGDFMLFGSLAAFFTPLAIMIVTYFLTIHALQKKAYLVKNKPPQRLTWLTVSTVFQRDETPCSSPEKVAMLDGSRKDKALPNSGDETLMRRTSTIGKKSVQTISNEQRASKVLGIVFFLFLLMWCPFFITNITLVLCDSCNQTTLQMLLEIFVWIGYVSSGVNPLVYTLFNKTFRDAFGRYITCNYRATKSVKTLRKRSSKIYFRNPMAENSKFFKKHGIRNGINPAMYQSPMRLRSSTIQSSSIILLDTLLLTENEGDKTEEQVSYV
VPAC1 (VIP1), sequence (P32241 31-457): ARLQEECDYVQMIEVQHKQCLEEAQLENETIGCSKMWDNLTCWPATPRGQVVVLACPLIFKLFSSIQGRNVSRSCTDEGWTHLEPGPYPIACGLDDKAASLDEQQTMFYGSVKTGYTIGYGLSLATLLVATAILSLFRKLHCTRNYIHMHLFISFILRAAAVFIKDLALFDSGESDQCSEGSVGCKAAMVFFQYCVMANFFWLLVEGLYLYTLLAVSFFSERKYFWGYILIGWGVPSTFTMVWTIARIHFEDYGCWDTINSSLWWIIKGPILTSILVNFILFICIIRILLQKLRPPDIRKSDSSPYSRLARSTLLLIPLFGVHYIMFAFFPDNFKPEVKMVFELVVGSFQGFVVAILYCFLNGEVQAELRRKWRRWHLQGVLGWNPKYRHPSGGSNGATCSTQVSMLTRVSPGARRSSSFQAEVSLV
Y2, sequence (P49146 whole entry): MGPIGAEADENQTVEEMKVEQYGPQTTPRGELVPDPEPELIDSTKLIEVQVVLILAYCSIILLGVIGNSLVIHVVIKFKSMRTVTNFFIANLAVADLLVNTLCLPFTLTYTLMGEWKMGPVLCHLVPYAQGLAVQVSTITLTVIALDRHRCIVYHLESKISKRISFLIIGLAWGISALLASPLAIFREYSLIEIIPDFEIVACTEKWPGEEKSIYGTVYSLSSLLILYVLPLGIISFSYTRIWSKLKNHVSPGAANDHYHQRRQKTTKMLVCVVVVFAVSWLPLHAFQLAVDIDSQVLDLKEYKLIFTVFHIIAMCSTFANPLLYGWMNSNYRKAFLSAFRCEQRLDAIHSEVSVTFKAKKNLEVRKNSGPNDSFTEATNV
ETA, sequence (P25101 21-427): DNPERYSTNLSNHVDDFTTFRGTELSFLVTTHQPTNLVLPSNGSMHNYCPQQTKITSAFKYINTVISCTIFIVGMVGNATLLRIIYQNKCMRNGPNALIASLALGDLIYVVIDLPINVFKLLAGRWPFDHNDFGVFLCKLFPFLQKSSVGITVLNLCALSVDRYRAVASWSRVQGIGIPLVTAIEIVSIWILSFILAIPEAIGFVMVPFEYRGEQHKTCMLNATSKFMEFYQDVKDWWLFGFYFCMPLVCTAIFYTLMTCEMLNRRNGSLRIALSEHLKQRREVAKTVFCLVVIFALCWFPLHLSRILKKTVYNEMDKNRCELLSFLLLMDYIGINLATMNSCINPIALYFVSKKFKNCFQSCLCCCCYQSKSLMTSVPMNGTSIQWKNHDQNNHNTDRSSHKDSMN
AR, sequence (P10275 whole entry T878A): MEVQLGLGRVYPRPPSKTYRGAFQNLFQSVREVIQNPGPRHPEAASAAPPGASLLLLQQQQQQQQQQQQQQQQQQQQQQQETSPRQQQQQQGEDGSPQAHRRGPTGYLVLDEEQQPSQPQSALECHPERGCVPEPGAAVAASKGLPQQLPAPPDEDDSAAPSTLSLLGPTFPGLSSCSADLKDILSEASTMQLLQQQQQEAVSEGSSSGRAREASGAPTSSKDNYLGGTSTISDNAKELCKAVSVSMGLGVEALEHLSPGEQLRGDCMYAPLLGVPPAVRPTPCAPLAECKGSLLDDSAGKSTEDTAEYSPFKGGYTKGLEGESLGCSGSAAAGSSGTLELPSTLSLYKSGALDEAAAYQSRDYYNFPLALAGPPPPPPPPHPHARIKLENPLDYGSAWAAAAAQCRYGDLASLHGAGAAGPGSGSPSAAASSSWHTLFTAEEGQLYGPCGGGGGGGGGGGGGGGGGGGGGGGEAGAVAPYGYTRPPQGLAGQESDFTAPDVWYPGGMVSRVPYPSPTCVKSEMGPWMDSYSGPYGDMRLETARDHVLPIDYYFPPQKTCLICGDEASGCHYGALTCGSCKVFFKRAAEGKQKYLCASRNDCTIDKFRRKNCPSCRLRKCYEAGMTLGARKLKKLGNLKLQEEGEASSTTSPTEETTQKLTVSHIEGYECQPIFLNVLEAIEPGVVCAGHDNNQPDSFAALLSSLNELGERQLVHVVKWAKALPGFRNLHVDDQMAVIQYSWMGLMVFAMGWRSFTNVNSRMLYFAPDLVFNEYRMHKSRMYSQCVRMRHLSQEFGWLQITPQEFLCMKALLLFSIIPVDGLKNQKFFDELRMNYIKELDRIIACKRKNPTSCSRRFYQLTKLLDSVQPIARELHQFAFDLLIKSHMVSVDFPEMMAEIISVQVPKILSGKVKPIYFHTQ
GAL2, sequence (O43603 whole entry): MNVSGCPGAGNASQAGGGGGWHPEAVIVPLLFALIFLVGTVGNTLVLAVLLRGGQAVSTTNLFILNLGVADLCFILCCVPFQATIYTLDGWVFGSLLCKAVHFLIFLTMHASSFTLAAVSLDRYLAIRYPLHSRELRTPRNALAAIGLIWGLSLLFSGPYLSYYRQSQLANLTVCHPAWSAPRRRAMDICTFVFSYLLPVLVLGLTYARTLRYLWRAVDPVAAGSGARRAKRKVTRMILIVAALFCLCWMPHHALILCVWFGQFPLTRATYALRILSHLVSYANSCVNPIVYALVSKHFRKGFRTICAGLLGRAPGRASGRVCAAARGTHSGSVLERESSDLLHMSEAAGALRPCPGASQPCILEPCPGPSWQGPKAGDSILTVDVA
M5, sequence (P08912 whole entry): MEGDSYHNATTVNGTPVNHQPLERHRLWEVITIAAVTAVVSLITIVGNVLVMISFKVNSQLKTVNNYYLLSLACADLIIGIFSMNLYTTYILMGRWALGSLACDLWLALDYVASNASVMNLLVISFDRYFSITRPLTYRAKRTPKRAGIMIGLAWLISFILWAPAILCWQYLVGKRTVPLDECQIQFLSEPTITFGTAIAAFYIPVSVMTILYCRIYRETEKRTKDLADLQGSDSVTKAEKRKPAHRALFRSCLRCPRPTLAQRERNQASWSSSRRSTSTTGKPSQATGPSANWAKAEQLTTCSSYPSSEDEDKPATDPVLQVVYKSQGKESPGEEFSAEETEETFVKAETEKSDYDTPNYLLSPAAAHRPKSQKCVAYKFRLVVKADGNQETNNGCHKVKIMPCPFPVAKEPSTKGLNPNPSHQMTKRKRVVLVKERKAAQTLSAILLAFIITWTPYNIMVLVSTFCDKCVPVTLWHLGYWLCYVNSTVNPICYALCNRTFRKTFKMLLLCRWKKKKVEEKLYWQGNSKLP
TP (TXA2/PGH2), sequence (P21731 whole entry): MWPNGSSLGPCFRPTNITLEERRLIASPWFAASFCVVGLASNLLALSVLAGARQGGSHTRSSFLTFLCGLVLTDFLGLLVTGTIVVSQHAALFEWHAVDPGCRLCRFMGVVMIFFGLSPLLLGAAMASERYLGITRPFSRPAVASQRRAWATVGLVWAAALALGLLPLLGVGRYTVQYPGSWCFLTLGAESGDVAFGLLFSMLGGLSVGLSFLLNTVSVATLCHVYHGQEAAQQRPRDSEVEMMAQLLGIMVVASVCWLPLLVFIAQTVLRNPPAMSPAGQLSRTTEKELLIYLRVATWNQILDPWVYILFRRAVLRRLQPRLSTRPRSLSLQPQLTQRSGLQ
MC4, sequence (P32245 whole entry): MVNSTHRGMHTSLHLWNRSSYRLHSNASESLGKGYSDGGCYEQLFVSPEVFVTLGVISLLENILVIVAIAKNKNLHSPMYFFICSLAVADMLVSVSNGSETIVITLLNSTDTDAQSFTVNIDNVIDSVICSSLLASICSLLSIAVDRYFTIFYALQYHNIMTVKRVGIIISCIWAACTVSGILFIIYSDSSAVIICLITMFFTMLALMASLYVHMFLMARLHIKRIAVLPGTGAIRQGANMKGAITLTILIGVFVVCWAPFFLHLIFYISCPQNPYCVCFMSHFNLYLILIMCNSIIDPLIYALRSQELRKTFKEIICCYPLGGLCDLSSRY

As for `O=C([O-])c1ccc(C2(NC(=O)[C@H]3CC4(CCN3Cc3ccc(C(F)(F)F)cc3)CC4)CC2)cc1.[Na+]` [CR6086, Sodium (R)-4-(1-(6-(4-(trifluoromethyl)benzyl)-6-azaspiro[2.5]octane-5-carboxamido)cyclopropyl)benzoate], the inhibition at 10 µM at NK3, at MC4, at CXCR2 (IL-8B), at ETA, on PAC1 (PACAP) and on 5-HT2B was less than 20% in each case. Further, the inhibition at 10 µM (in [2]; at VPAC1 (VIP1); on Y2; on GAL2; on TP (TXA2/PGH2); on AR) was less than 20% throughout. Moreover, the inhibition at 10 µM on MT1 (ML1A), at M5 and on CysLT2 (Cys-LTs) was less than 20% throughout. In addition, the fraction unbound in series [1] worked out at 0.0484. Moreover, the “CR6086 Activity at 10µM” value with BB (non-selective), in the series with α1 (non-selective), in the series on sst (non-selective), in the series with P2Y and with GABA (non-selective) was “IN (IN = < 20% displacement or inhibition (all tables))” each time.
